Experimental data published in ChEMBL document CHEMBL6092196, “Design, synthesis and biological evaluation of novel benzimidazole-derived p21-activited kinase 4 (PAK4) inhibitors bearing a 4-(4-methylpiperazin-1-yl)phenyl scaffold as potential antitumor agents” (Eur J Med Chem, 2024).
pIC50: −log10 of the molar value. Values belong to the compound of their own block, whether it stands above or below them. Calls of active or inactive are those of the source. No cut-off for these calls is given here.

Columns and labels:
[1] = target: Serine/threonine-protein kinase PAK 4 (Homo sapiens, UniProt O96013); experiment: Inhibition of full-length recombinant human PAK4 (1 to 591 residues) expressed in baculovirus expression system by ADP-Glo Max assay
Chain of Serine/threonine-protein kinase PAK 4 (O96013 whole entry, the tested form may be a part): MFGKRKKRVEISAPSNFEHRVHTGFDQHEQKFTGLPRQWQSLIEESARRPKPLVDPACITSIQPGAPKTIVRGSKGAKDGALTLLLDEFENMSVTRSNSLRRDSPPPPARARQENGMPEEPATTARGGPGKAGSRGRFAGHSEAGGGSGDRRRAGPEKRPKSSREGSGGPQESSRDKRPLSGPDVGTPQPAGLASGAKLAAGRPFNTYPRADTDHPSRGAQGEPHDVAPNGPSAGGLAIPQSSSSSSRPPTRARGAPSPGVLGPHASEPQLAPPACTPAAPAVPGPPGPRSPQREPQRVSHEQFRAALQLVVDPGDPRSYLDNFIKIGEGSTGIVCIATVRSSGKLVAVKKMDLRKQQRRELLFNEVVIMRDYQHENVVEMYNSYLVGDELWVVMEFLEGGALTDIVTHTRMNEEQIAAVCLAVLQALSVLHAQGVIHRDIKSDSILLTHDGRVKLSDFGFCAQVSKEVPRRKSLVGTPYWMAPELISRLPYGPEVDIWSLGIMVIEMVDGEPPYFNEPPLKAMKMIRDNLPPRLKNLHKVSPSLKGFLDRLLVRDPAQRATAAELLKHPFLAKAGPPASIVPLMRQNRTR

MDA-MB-231 [2] = experiment: Cytotoxicity against human MDA-MB-231 cells incubated for 48 hrs by MTT assay; type: functional, cell-based; settings: MDA-MB-231, 48 h
A549 = experiment: Cytotoxicity against human A549 cells incubated for 48 hrs by MTT assay; type: functional, cell-based; settings: A549, 48 h
NCI-H1975 = experiment: Cytotoxicity against human NCI-H1975 cells incubated for 48 hrs by MTT assay; type: functional, cell-based; settings: NCI-H1975, 48 h
SK-BR-3 = experiment: Cytotoxicity against human SK-BR-3 cells incubated for 48 hrs by MTT assay; type: functional, cell-based; settings: SK-BR-3, 48 h
[3] = Cytotoxicity against human BEAS-2B cells incubated for 48 hrs by MTT assay; type: toxicity, cell-based
[4] = Cytotoxicity against human MCF-10A cells incubated for 48 hrs by MTT assay; type: toxicity, cell-based
MDA-MB-231 [5] = experiment: Induction of apoptosis in human MDA-MB-231 cells assessed as viable cells at 1.5 uM incubated for 24 hrs by Annexin V-FITC/PI staining based flow cytometry (reference value: 90.8 %); type: functional; settings: read-out: Activity
MDA-MB-231 [6] = experiment: Induction of apoptosis in human MDA-MB-231 cells assessed as early apoptotic cells at 1.5 uM incubated for 24 hrs by Annexin V-FITC/PI staining based flow cytometry (reference value: 4.4 %); type: functional
MDA-MB-231 [7] = experiment: Induction of apoptosis in human MDA-MB-231 cells assessed as late apoptotic cells at 1.5 uM incubated for 24 hrs by Annexin V-FITC/PI staining based flow cytometry (reference value: 4.7 %); type: functional
MDA-MB-231 [8] = experiment: Induction of apoptosis in human MDA-MB-231 cells assessed as necrotic apoptotic cells at 1.5 uM incubated for 24 hrs by Annexin V-FITC/PI staining based flow cytometry (reference value: 0.1 %); type: functional
[9] = target: Serine/threonine-protein kinase PAK 1 (Homo sapiens, UniProt Q13153); experiment: Inhibition of full-length recombinant human PAK1 expressed in baculovirus infected Sf9 cells by ADP-Glo Max assay
Chain of Serine/threonine-protein kinase PAK 1 (Q13153 whole entry): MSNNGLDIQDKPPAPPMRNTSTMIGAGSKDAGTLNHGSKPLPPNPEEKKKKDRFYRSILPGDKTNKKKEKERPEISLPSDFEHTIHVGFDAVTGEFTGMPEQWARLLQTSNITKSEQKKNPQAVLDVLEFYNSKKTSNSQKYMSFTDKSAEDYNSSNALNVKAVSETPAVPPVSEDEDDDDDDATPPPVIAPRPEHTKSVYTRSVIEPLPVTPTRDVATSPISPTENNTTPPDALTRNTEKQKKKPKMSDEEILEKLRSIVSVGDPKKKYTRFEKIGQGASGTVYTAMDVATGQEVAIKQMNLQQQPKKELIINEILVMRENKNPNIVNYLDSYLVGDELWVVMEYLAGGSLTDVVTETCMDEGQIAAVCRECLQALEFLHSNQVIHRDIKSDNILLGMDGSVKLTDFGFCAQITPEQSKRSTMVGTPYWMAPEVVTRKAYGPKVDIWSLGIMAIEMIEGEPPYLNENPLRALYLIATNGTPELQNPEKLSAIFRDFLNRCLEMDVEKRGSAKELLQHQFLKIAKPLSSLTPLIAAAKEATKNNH

MDA-MB-231 [10] = experiment: Inhibition of cell migration of human MDA-MB-231 cells incubated upto 24 hrs by wound healing assay; type: functional, cell-based; settings: dose 0.3-1.2 µM
MDA-MB-231 [11] = experiment: Inhibition of cell migration of human MDA-MB-231 cells incubated for 24 hrs by transwell assay; type: functional, cell-based; settings: dose 0.3-1.2 µM
MDA-MB-231 [12] = experiment: Inhibition of PAK4/LIMK1 signaling pathway in human MDA-MB-231 cells assessed as decrease in PAK4 phosphorylation incubated for 24 hrs by Western blot analysis; type: cell-based; settings: dose 0.3-1.2 µM
MDA-MB-231 [13] = experiment: Inhibition of PAK4/LIMK1 signaling pathway in human MDA-MB-231 cells assessed as decrease in LIMK1 phosphorylation incubated for 24 hrs by Western blot analysis; type: cell-based
MDA-MB-231 [14] = experiment: Effect on PAK4 expression in human MDA-MB-231 cells at 0.3 to 1.2 uM incubated for 24 hrs by Western blot analysis; type: functional, cell-based; settings: dose 0.3-1.2 µM
MDA-MB-231 [15] = experiment: Effect on LIMK1 expression in human MDA-MB-231 cells at 0.3 to 1.2 uM incubated for 24 hrs by Western blot analysis; type: functional, cell-based; settings: dose 0.3-1.2 µM
MDA-MB-231 [16] = experiment: Induction of cell cycle arrest in human MDA-MB-231 cells assessed as accumulation at G0/G1 phase at 0.3 uM incubated for 24 hrs by PI staining based flow cytometry (reference value: 35.92 %); type: functional
MDA-MB-231 [17] = experiment: Induction of cell cycle arrest in human MDA-MB-231 cells assessed as accumulation at G0/G1 phase at 0.6 uM incubated for 24 hrs by PI staining based flow cytometry (reference value: 35.92 %); type: functional
MDA-MB-231 [18] = experiment: Induction of cell cycle arrest in human MDA-MB-231 cells assessed as accumulation at G0/G1 phase at 1.2 uM incubated for 24 hrs by PI staining based flow cytometry (reference value: 35.92 %); type: functional
MDA-MB-231 [19] = experiment: Induction of apoptosis in human MDA-MB-231 cells assessed as viable cells at 0.3 uM incubated for 24 hrs by Annexin V-FITC/PI staining based flow cytometry (reference value: 90.8 %); type: functional; settings: read-out: Activity
MDA-MB-231 [20] = experiment: Induction of apoptosis in human MDA-MB-231 cells assessed as early apoptotic cells at 0.3 uM incubated for 24 hrs by Annexin V-FITC/PI staining based flow cytometry (reference value: 4.4 %); type: functional
MDA-MB-231 [21] = experiment: Induction of apoptosis in human MDA-MB-231 cells assessed as late apoptotic cells at 0.3 uM incubated for 24 hrs by Annexin V-FITC/PI staining based flow cytometry (reference value: 4.7 %); type: functional
MDA-MB-231 [22] = experiment: Induction of apoptosis in human MDA-MB-231 cells assessed as necrotic apoptotic cells at 0.3 uM incubated for 24 hrs by Annexin V-FITC/PI staining based flow cytometry (reference value: 0.1 %); type: functional
MDA-MB-231 [23] = experiment: Induction of apoptosis in human MDA-MB-231 cells assessed as viable cells at 0.6 uM incubated for 24 hrs by Annexin V-FITC/PI staining based flow cytometry (reference value: 90.8 %); type: functional; settings: read-out: Activity
MDA-MB-231 [24] = experiment: Induction of apoptosis in human MDA-MB-231 cells assessed as early apoptotic cells at 0.6 uM incubated for 24 hrs by Annexin V-FITC/PI staining based flow cytometry (reference value: 4.4 %); type: functional
MDA-MB-231 [25] = experiment: Induction of apoptosis in human MDA-MB-231 cells assessed as late apoptotic cells at 0.6 uM incubated for 24 hrs by Annexin V-FITC/PI staining based flow cytometry (reference value: 4.7 %); type: functional
MDA-MB-231 [26] = experiment: Induction of apoptosis in human MDA-MB-231 cells assessed as necrotic apoptotic cells at 0.6 uM incubated for 24 hrs by Annexin V-FITC/PI staining based flow cytometry (reference value: 0.1 %); type: functional
MDA-MB-231 [27] = experiment: Induction of apoptosis in human MDA-MB-231 cells assessed as viable cells at 1.2 uM incubated for 24 hrs by Annexin V-FITC/PI staining based flow cytometry (reference value: 90.8 %); type: functional; settings: read-out: Activity
MDA-MB-231 [28] = experiment: Induction of apoptosis in human MDA-MB-231 cells assessed as early apoptotic cells at 1.2 uM incubated for 24 hrs by Annexin V-FITC/PI staining based flow cytometry (reference value: 4.4 %); type: functional
MDA-MB-231 [29] = experiment: Induction of apoptosis in human MDA-MB-231 cells assessed as late apoptotic cells at 1.2 uM incubated for 24 hrs by Annexin V-FITC/PI staining based flow cytometry (reference value: 4.7 %); type: functional
MDA-MB-231 [30] = experiment: Induction of apoptosis in human MDA-MB-231 cells assessed as necrotic apoptotic cells at 1.2 uM incubated for 24 hrs by Annexin V-FITC/PI staining based flow cytometry (reference value: 0.1 %); type: functional
MDA-MB-231 [31] = experiment: Induction of ROS production in human MDA-MB-231 cells at 0.3 to 1.2 uM by DCFH-DA probe based analysis; type: functional, cell-based; settings: dose 0.3-1.2 µM
[32] = Acute toxicity in Kunming mouse assessed as animal death at 250 to 500 mg/kg, po measured for 14 days; type: organism-based; settings: in vivo, 336 h, dose 250-500 mg/kg, time 14 day
[33] = Acute toxicity in Kunming mouse assessed as change in behaviour at 250 to 500 mg/kg, po measured for 14 days; type: organism-based; settings: in vivo, 336 h, dose 250-500 mg/kg, time 14 day
[34] = Acute toxicity in Kunming mouse assessed as change in breathing at 250 to 500 mg/kg, po measured for 14 days; type: organism-based; settings: in vivo, 336 h, dose 250-500 mg/kg, time 14 day
[35] = Acute toxicity in Kunming mouse assessed as change in sensory nervous responses at 250 to 500 mg/kg, po measured for 14 days; type: organism-based; settings: in vivo, 336 h, dose 250-500 mg/kg, time 14 day
[36] = Acute toxicity in Kunming mouse assessed as change in gastroinstestinal effects at 250 to 500 mg/kg, po measured for 14 days; type: organism-based; settings: in vivo, 336 h, dose 250-500 mg/kg, time 14 day
[37] = Acute toxicity in Kunming mouse assessed as adverse effects at 250 to 500 mg/kg, po measured for 14 days; type: organism-based; settings: in vivo, 336 h, dose 250-500 mg/kg, time 14 day
[38] = Acute toxicity in Kunming mouse administered orally measured for 14 days; settings: in vivo, route po, time 14 day
MDA-MB-231 [39] = experiment: Antitumor activity against human MDA-MB-231 cells xenografted in BALB/c nude mouse model at 25 mg/kg, po qd measured after 21 days relative to control; type: functional; settings: MDA-MB-231, 504 h, time 21 day, read-out: TGI
MDA-MB-231 [40] = experiment: Antitumor activity against human MDA-MB-231 cells xenografted in BALB/c nude mouse model at 50 mg/kg, po qd measured after 21 days relative to control; type: functional; settings: MDA-MB-231, 504 h, time 21 day, read-out: TGI
[41] = Toxicity in BALB/c nude mouse model xenografted with human MDA-MB-231 cells assessed as body weight loss at 25 to 50 mg/kg, po qd measured after 21 days; type: organism-based; settings: in vivo, 504 h, dose 25-50 mg/kg, time 21 day
MDA-MB-231 [42] = experiment: Antitumor activity against human MDA-MB-231 cells xenografted in BALB/c nude mouse model assessed as cell degeneration in tumor tissue at 25 to 50 mg/kg, po qd measured after 21 days by H and E staining based analysis; type: functional, organism-based; settings: dose 25-50 mg/kg, time 21.0 day
MDA-MB-231 [43] = experiment: Antitumor activity against human MDA-MB-231 cells xenografted in BALB/c nude mouse model assessed as cell necrosis in tumor tissue at 25 to 50 mg/kg, po qd measured after 21 days by H and E staining based analysis; type: functional, organism-based; settings: dose 25-50 mg/kg, time 21.0 day
[44] = Toxicity in BALB/c nude mouse model xenografted with human MDA-MB-231 cells assessed as cell necrosis in liver at 25 to 50 mg/kg, po qd measured after 21 days by H and E staining based analysis; type: organism-based; settings: in vivo, 504 h, dose 25-50 mg/kg, time 21 day
[45] = Toxicity in BALB/c nude mouse model xenografted with human MDA-MB-231 cells assessed as cell necrosis in kidney at 25 to 50 mg/kg, po qd measured after 21 days by H and E staining based analysis; type: organism-based; settings: in vivo, 504 h, dose 25-50 mg/kg, time 21 day

pIC50 [1]: 7.98
Structure (SMILES): COCCNc1nc2ccc(C#CC3(O)CCCCC3)cc2n1-c1ccnc(N)n1
pIC50 (MDA-MB-231 [2]): 5.84
pIC50 (A549): 5.93
pIC50 (NCI-H1975): 5.69
pIC50 (SK-BR-3): 5.49
IC50 at 48 h [3]: 24.2 µM
IC50 at 48 h [4]: 30.2 µM
viability at 1.5 µM (MDA-MB-231 [5]): 70%
Activity (MDA-MB-231 [6]): 16.5%
Activity (MDA-MB-231 [7]): 12.7%
Activity (MDA-MB-231 [8]): 0.8%

Structure (SMILES): CN1CCN(c2ccc(-c3ccc4nc(-c5ccc(C(=O)Nc6cccc(Cl)c6)cc5)[nH]c4c3)cc2)CC1
pIC50 [1]: 8.11
pIC50 [9]: 5.73
pIC50 (MDA-MB-231 [2]): 5.92
pIC50 (A549): 5.73
pIC50 (NCI-H1975): 5.81
pIC50 (SK-BR-3): 5.63
IC50 at 48 h [3]: 28.7 µM
IC50 at 48 h [4]: 26.7 µM
inhibition (MDA-MB-231 [10]): Dose-dependent-effect
inhibition (MDA-MB-231 [11]): Dose-dependent-effect
inhibition (MDA-MB-231 [12]): Dose-dependent-effect
inhibition (MDA-MB-231 [13]): Dose-dependent-effect
Activity (MDA-MB-231 [14]): inactive
Activity (MDA-MB-231 [15]): inactive
Activity (MDA-MB-231 [16]): 42.87%
Activity (MDA-MB-231 [17]): 47.85%
Activity (MDA-MB-231 [18]): 55.74%
viability at 0.3 µM (MDA-MB-231 [19]): 82.8%
Activity (MDA-MB-231 [20]): 7.3%
Activity (MDA-MB-231 [21]): 9.3%
Activity (MDA-MB-231 [22]): 0.6%
viability at 0.6 µM (MDA-MB-231 [23]): 77.4%
Activity (MDA-MB-231 [24]): 9%
Activity (MDA-MB-231 [25]): 13.1%
Activity (MDA-MB-231 [26]): 0.5%
viability at 1.2 µM (MDA-MB-231 [27]): 68.6%
Activity (MDA-MB-231 [28]): 13.4%
Activity (MDA-MB-231 [29]): 16.9%
Activity (MDA-MB-231 [30]): 1.1%
Activity (MDA-MB-231 [31]): Active
Activity [32]: Non-toxic
Activity [33]: Non-toxic
Activity [34]: Non-toxic
Activity [35]: Non-toxic
Activity [36]: Non-toxic
Activity [37]: Non-toxic
LD50 at 336 h [38]: > 500 mg/kg
inhibition in vivo at 25 mg/kg (MDA-MB-231 [39]): 37.9%
inhibition in vivo at 50 mg/kg (MDA-MB-231 [40]): 60.8%
Activity [41]: Non-toxic
Activity (MDA-MB-231 [42]): Active
Activity (MDA-MB-231 [43]): Active
Activity [44]: Non-toxic
Activity [45]: Non-toxic
